From patent publication US20230312587A1, “PTERIDINONE COMPOUNDS AND USES THEREOF” (Vertex Pharmaceutical Incorporated, priority 2018, published 2023)

tested on: β-catenin-TCF-mediated reporter transcription activity in Colo 205 cells; assay: Colo 205 reporter assay (TCF/LEF luciferase); format: cell-based; settings: Colo 205 TCF/LEF luciferase reporter, five hours after addition of compound; read-out: TCF reporter Colo205 IC50
How it was run: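 Luciferase signal from a TCF/LEF-driven reporter, stably integrated in Colo 205 colon cancer cells, was measured 5 h after compound addition.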

Compound | IC50 [nM]
COC1(C2C(=O)Nc3c(C)nc(NCc4cnn(Cc5cc(C(F)(F)F)nn5C)c4)nc3N2C)CC1 (stereo not drawn) [Compound 666, 7-(1-methoxycyclopropyl)-4,8-dimethyl-2-(((1-((1-methyl-3-(trifluoromethyl)-1H-pyrazol-5-yl)methyl)-1H-pyrazol-4-yl)methyl)amino)-7,8-dihydropteridin-6(511)-one] | 300 to 1000

same assay, conditions: Homo sapiens, COLO 205, 5 h, Colo 205 TCF/LEF luciferase reporter, five hours after addition of compound; read-out: TCF reporter Colo205 IC50

Compound | IC50 [nM]
Cc1nc(NC2CN(Cc3ccccc3)C2)nc2c1NC(=O)[C@H](C)N2C [Compound 244, (7S)-2-((1-benzylazetidin-3-yl)amino)-4,7,8-trimethyl-7,8-dihydropteridin-6(5H)-one] | ≥ 5000
CO[C@@H](C(=O)N1CC(Nc2nc(C)c3c(n2)N(C)[C@@H](C(C)C)C(=O)N3)C1)c1ccccc1 [Compound 634, (S)-7-isopropyl-2-((1-((R)-2-methoxy-2-phenylacetyl)azetidin-3-yl)amino)-4,8-dimethyl-7,8-dihydropteridin-6(5H)-one] | ≥ 5000
Cc1nc(N[C@H]2C[C@@H](c3ccc(OC(F)(F)F)cc3)C2)nc2c1NC(=O)[C@H](C)N2C [Compound 507, (7S)-4,7,8-trimethyl-2-(((cis)-3-(4-(trifluoromethoxy)phenyl)cyclo-butyl)amino)-7,8-dihydropteridin-6(5H)-one] | < 300
COc1c(F)cc(OC[C@H]2C[C@@H](Nc3nc(C)c4c(n3)N(C)[C@@H](C)C(=O)N4)C2)cc1F [Compound 284, (7S)-2-((cis-3-((3,5-difluoro-4-methoxyphenoxy)methyl)cyclobutyl)amino)-4,7,8-trimethyl-7,8-dihydropteridin-6(5H)-one] | < 300
Cc1nc(N[C@H]2C[C@H](Oc3ccc(F)c(F)c3)C2)nc2c1N(C)C(=O)[C@H](C)N2C [Compound 252, (7S)-2-((trans-3-(3,4-difluorophenoxy)cyclobutyl)amino)-4,5,7,8-tetramethyl-7,8-dihydropteridin-6(5H)-one] | < 300
C[C@H]1C(=O)Nc2cnc(NC3CN(Cc4ccccc4)C3)nc2N1C [Compound 245, (7S)-2-((1-benzylazetidin-3-yl)amino)-7,8-dimethyl-7,8-dihydropteridin-6(5H)-one] | ≥ 5000
Cc1nc(NCc2cnn(Cc3ccc4c(c3)OCO4)c2)nc2c1NC(=O)[C@H](C)N2C [Compound 181, (7S)-2-(((1-(benzo[d][1,3]dioxol-5-ylmethyl)-1H-pyrazol-4-yl)methyl)amino)-4,7,8-trimethyl-7,8-dihydropteridin-6(5H)-one] | < 300
Cc1nc(NCc2cnn(Cc3cccc(C(F)(F)F)n3)c2)nc2c1NC(=O)[C@H](C)N2C [Compound 184, (7S)-4,7,8-trimethyl-2-(((1-((6-(trifluoromethyl)pyridin-2-yl)methyl)-1H-pyrazol-4-yl)methyl)amino)-7,8-dihydropteridin-6(5H)-one] | < 300
CO[C@H](C)[C@H]1C(=O)Nc2c(C)nc(NCc3cnn(Cc4ccc(C(F)(F)F)nc4)c3)nc2N1C [Compound 498, (S)-7-((R)-1-methoxyethyl)-4,8-dimethyl-2-(((1-((6-(trifluoromethyl)pyridin-3-yl)methyl)-1H-pyrazol-4-yl)methyl)amino)-7,8-dihydropteridin-6(5H)-one] | < 300
Cc1nc(N[C@H]2C[C@H](Nc3ccc(C(F)(F)F)nn3)C2)nc2c1NC(=O)[C@H](C(C)C)N2C [Compound 555, (S)-7-isopropyl-4,8-dimethyl-2-((trans-3-((6-(trifluoromethyl)pyridazin-3-yl)amino)cyclobutyl)amino)-7,8-dihydropteridin-6(5H)-one] | 1000 to 5000
Cc1cc(C(=O)N2CC(Nc3nc(C)c4c(n3)N(C)[C@@H](C(C)C)C(=O)N4)C2)on1 [Compound 620, (S)-7-isopropyl-4,8-dimethyl-2-((1-(3-methylisoxazole-5-carbonyl)azetidin-3-yl)amino)-7,8-dihydropteridin-6(5H)-one] | ≥ 5000
Cc1nc(N[C@H]2C[C@@H](NC(=O)Nc3cc(F)c(F)c(F)c3)C2)nc2c1NC(=O)[C@H](C)N2C [Compound 472, 1-(3,4,5-trifluorophenyl)-3-(cis-3-(((S)-4,7,8-trimethyl-6-oxo-5,6,7,8-tetrahydropteridin-2-yl)amino)cyclobutyl)urea] | < 300
Cc1nc(N[C@H]2C[C@@H](Sc3ccc(OC(F)(F)F)cc3)C2)nc2c1N(C)C(=O)[C@H](C)N2C [Compound 348, (7S)-4,5,7,8-tetramethyl-2-((cis-3-((4-(trifluoromethoxy)phenyl)thio)cyclobutyl)amino)-7,8-dihydropteridin-6(5H)-one] | 1000 to 5000
Cc1nc(NCc2cnn(-c3cccc(C(F)(F)F)c3)c2)nc2c1NC(=O)[C@H](C)N2C [Compound 97, (7S)-4,7,8-trimethyl-2-(((1-(3-(trifluoromethyl)phenyl)-1H-pyrazol-4-yl)methyl)amino)-7,8-dihydropteridin-6(5H)-one] | < 300
Cc1nc(NCc2cnn(C3CCN(C(=O)c4cc(F)c(F)c(F)c4)CC3)c2)nc2c1NC(=O)[C@H](C)N2C [Compound 124, (7S)-4,7,8-Trimethyl-2-(((1-(1-(3,4,5-trifluorobenzoyl)piperidin-4-yl)-1H-pyrazol-4-yl)methyl)amino)-7,8-dihydropteridin-6(5H)-one] | 300 to 1000
CC(C)c1cccc(Cn2cc(CNc3ncc4c(n3)N(C)[C@@H](C)C(=O)N4)cn2)c1 [Compound 81, (7S)-2-(((1-(3-isopropylbenzyl)-1H-pyrazol-4-yl)methyl)amino)-7,8-dimethyl-7,8-dihydropteridin-6(5H)-one] | < 300
Cc1nc(N[C@H]2C[C@@H](Nc3ccc(C(F)(F)F)cn3)C2)nc2c1NC(=O)[C@H](C)N2C [Compound 562, (S)-4,7,8-trimethyl-2-((cis-3-((5-(trifluoromethyl)pyridin-2-yl)amino)cyclobutyl)amino)-7,8-dihydropteridin-6(5H)-one] | 300 to 1000
Cc1nc(N[C@H]2C[C@H](Nc3cnc(C(F)(F)F)cn3)C2)nc2c1NC(=O)[C@H](C)N2C [Compound 579, (S)-4,7,8-trimethyl-2-((trans-3-((5-(trifluoromethyl)pyrazin-2-yl)amino)cyclobutyl)amino)-7,8-dihydropteridin-6(5H)-one] | 1000 to 5000
Cc1nc(N[C@H]2CC[C@H](Oc3cc(F)c(F)c(F)c3)C2)nc2c1NC(=O)[C@H](C)N2C (mixture of isomers) [Compound 260, (7S)-4,7,8-trimethyl-2-((trans-3-(3,4,5-trifluorophenoxy)cyclopentyl)amino)-7,8-dihydropteridin-6(5H)-one] | 300 to 1000
COc1ccc(Cn2cc(CNc3nc(C)c4c(n3)N(C)[C@@H](C)C(=O)N4)cn2)cn1 [Compound 197, (7S)-2-(((1-((6-methoxypyridin-3-yl)methyl)-1H-pyrazol-4-yl)methyl)amino)-4,7,8-trimethyl-7,8-dihydropteridin-6(5H)-one] | < 300
Cc1nc(N[C@H]2C[C@H](Sc3cc(F)c(F)c(F)c3)C2)nc2c1N(C)C(=O)[C@H](C)N2C [Compound 330, (7S)-4,5,7,8-tetramethyl-2-((trans-3-((3,4,5-trifluorophenyl)thio)-cyclobutyl)amino)-7,8-dihydropteridin-6(5H)-one] | 300 to 1000
Cc1nc(N[C@H]2C[C@@H](Cn3ccc(C(F)(F)F)n3)C2)nc2c1NC(=O)[C@H](C)N2C [Compound 698, (S)-4,7,8-trimethyl-2-((cis-3-((3-(trifluoromethyl)-1H-pyrazol-1-yl)methyl)cyclobutyl)amino)-7,8-dihydropteridin-6(5H)-one] | 300 to 1000
Cc1nc(N[C@H]2C[C@H](Oc3cc(F)c(O)c(F)c3)C2)nc2c1NC(=O)[C@H](C)N2C [Compound 349, (7S)-2-((trans-3-(3,5-difluoro-4-hydroxyphenoxy)cyclobutyl)amino)-4,7,8-trimethyl-7,8-dihydropteridin-6(5H)-one] | ≥ 5000
CO[C@H](C)[C@H]1C(=O)Nc2c(C)nc(N[C@H]3C[C@H](N(C)c4cnc(C(F)(F)F)cn4)C3)nc2N1C [Compound 681, (S)-7-((R)-1-methoxyethyl)-4,8-dimethyl-2-((trans-3-(methyl(5-(trifluoromethyl)pyrazin-2-yl)amino)cyclobutyl)amino)-7,8-dihydropteridin-6(5H)-one] | 300 to 1000
Cc1nc(NCc2cnn(Cc3ccc(F)cc3)c2)nc2c1NC(=O)[C@H](C(C)C)N2C [Compound 479, (S)-2-(((1-(4-fluorobenzyl)-1H-pyrazol-4-yl)methyl)amino)-7-isopropyl-4,8-dimethyl-7,8-dihydropteridin-6(5H)-one] | < 300
Cc1nc(NCc2cnn(Cc3ccnc(Cl)c3)c2)nc2c1NC(=O)[C@H](C1CC1)N2C [Compound 608, (S)-2-(((1-((2-chloropyridin-4-yl)methyl)-1H-pyrazol-4-yl)methyl)amino)-7-cyclopropyl-4,8-dimethyl-7,8-dihydropteridin-6(5H)-one] | < 300

same assay, conditions: Homo sapiens, COLO 205, 5 h, Colo 205 cells with stably transfected TCF/LEF luciferase reporter; five hours after addition of compound; read-out: TCF reporter Colo205

Compound | IC50 [nM]
Cc1nc(N(Cc2cnn(Cc3ccc(C(F)(F)F)nc3)c2)C(=O)[C@@H](N)C(C)C)nc2c1NC(=O)[C@H](C)N2C [Compound 402, (S)-2-amino-3-methyl-N-((1-((6-(trifluoromethyl)pyridin-3-yl)methyl)-1H-pyrazol-4-yl)methyl)-N-((S)-4,7,8-trimethyl-6-oxo-5,6,7,8-tetrahydropteridin-2-yl)butanamide] | ≥ 5000
[2H]C([2H])([2H])N1c2nc(NCc3cnn(Cc4ccc(C(F)(F)F)nc4)c3)nc(C)c2NC(=O)[C@@H]1C [Compound 400, (7S)-4,7-dimethyl-8-(methyl-d3)-2-(((1-((6-(trifluoromethyl)pyridin-3-yl)methyl)-1H-pyrazol-4-yl)methyl)amino)-7,8-dihydropteridin-6(5H)-one] | < 300

same assay, conditions: Homo sapiens, COLO 205, 5 h, R-isomer at C2 (corresponding to C2 S-isomer); Colo 205 TCF/LEF luciferase reporter, 5 h; read-out: TCF reporter Colo205 IC50

Compound | IC50 [nM]
Cc1nc(NCc2cnn(Cc3ccc(C(F)(F)F)nc3)c2)nc2c1NC(=O)[C@@H](C)N2C [Compound I-1636] | 1000 to 5000
